Columns and labels:
AVEFA = assay: greenhouse experiment, post-emergence treatment; type: in vivo, Avena fatua; conditions: post-emergence method, application rate 3.0 kg/ha, scale from 0 to 100
Description: (§1) The seeds of the test plants were sown separately for each species. For the post-emergence treatment, the test plants were first grown to a height of 3 to 15 cm, depending on the plant habit, and then treated with the active compounds which had been suspended or emulsified in water. For this purpose, the test plants were either sown directly and grown in the same containers, or they were first grown separately as seedlings and transplanted into the test containers a few days prior to treatment. Depending on the species, the plants were kept at 10-25° C. or 20-35° C. The test period extended over 2 to 4 weeks. During this time, the plants were tended, and their response to the individual treatments was evaluated. Evaluation was carried out using a scale from 0 to 100. 100 means no emergence of the plants, or complete destruction of at least the aerial moieties, and 0 means no damage, or normal course of growth. A good herbicidal activity is given at values of at least 70 and a very good herbicidal activity is given at values of at least 85. [table]

SETFA = assay: greenhouse experiment, post-emergence treatment; type: in vivo, Setaria faberi; conditions: post-emergence method, application rate 3.0 kg/ha, scale from 0 to 100
Description: as §1

ABUTH = assay: greenhouse experiment, post-emergence treatment; type: in vivo, Abutilon theophrasti; conditions: post-emergence method, application rate 3.0 kg/ha, scale from 0 to 100
Description: as §1

SETIT = assay: greenhouse experiment, pre-emergence treatment; type: in vivo, Setaria italica; conditions: pre-emergence method, application rate 3.0 kg/ha, scale from 0 to 100
Description: The seeds of the test plants were sown separately for each species. For the pre-emergence treatment, the active compounds, which had been suspended or emulsified in water, were applied directly after sowing by means of finely distributing nozzles. The containers were irrigated gently to promote germination and growth and subsequently covered with transparent plastic hoods until the plants had rooted. This cover caused uniform germination of the test plants, unless this has been impaired by the active compounds. Depending on the species, the plants were kept at 10-25° C. or 20-35° C. The test period extended over 2 to 4 weeks. During this time, the plants were tended, and their response to the individual treatments was evaluated. Evaluation was carried out using a scale from 0 to 100. 100 means no emergence of the plants, or complete destruction of at least the aerial moieties, and 0 means no damage, or normal course of growth. A good herbicidal activity is given at values of at least 70 and a very good herbicidal activity is given at values of at least 85. [table]

O=c1oc2nccnc2c(O)c1-c1ccccc1C(F)(F)F [example 1, 8-Hydroxy-7-(2-trifluoromethylphenyl)pyrano[2,3-b]pyrazin-6-one]
herbicidal activity against AVEFA (AVEFA): good herbicidal activity (A good herbicidal activity is given at values of at least 70) | herbicidal activity against SETFA (SETFA): good herbicidal activity (A good herbicidal activity is given at values of at least 70) | herbicidal activity against ABUTH (ABUTH): good herbicidal activity (A good herbicidal activity is given at values of at least 70) | herbicidal activity against SETIT (SETIT): very good herbicidal activity (a very good herbicidal activity is given at values of at least 85)

From patent US20120071322A1, “Substituted Pyridopyrazines with a Herbicidal Action” (BASF SE, priority 2009, published 2012)
